Results published in article PMC6079014, “Calcium is an essential cofactor for metal efflux by the ferroportin transporter family” (Nature Communications, 2018).
“And” between values parts separate entries of the source, which are not always exact repeats. Equal values may be shown once. Read-outs that look alike come from different tables or passages of the source.

What was measured:
mouse Fpn (Fpn-C2) = molecular target: T1, mouse Fpn (Fpn-C2) (Mus musculus, UniProt Q9JHI9, DEL251-290/DEL401-449); test: Isothermal titration calorimetry, thermostabilized mouse Fpn construct Fpn-C2; format: binding
T1 construct: generated from full-length mouse Fpn (UniProt: Q9JHI9); GFP (C); made in house; host or cells: Sf9 insect cells (baculovirus)
T1 sequence (Q9JHI9 with tags, fused parts or gaps DEL251-290/DEL401-449): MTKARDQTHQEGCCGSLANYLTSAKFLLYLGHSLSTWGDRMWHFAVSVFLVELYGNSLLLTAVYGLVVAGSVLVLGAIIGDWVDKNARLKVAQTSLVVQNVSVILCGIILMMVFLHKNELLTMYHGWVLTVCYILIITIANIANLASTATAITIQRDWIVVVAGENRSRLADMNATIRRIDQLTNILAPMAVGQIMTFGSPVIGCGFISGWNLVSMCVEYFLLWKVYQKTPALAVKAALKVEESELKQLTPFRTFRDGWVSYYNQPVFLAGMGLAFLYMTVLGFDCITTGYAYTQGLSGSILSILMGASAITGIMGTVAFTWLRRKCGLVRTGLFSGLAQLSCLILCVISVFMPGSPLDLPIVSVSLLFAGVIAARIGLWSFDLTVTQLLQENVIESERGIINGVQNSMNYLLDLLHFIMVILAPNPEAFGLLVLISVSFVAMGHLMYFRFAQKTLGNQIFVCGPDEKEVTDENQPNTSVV
Description: To obtain a purified mammalian Fpn protein conducive for biophysical studies, we generated a protein construct with an increased thermal stability (Deshpande et al., 2018). In brief, the construct (Fpn-C2) was generated from full-length mouse Fpn (UniProt: Q9JHI9 [https://www.uniprot.org/uniprot/Q9JHI9]) by deleting two-loop regions (residues 251–290 and 401–449), followed by an overlapping PCR incorporating the E219A mutation to generate Fpn-C2-E219A. The genes were subsequently cloned with a C-terminal GFP fusion into a baculovirus transfer vector (pFastBac1; Thermo Fisher Scientific) and the proteins were expressed using the Bac-to-Bac Baculovirus and Sf9 cells (Thermo Fisher Scientific) expression method according to the manufacturer’s protocol (Thermo Fisher Scientific). For large scale expression of the protein, 6L Sf9 cells (2 × 10^6 cells/ml) were infected with virus at an optimal multiplicity of infection (MOI) of 2.5 in Insect-XPRESS™ Protein-free Insect Cell Medium with L-glutamine (Lonza) and incubated at 27 °C with shaking at 130 rpm. The cells were spun down 48 h post-infection at 1500 × g for 10 min and the pellet stored at −20 °C until further use.
For Fpn-C2 and Fpn-C2-E219A purification (Deshpande et al., 2018), Sf9 cells were thawed at room temperature with the addition of 2 μl Benzonase (250 units/μL, Sigma-Aldrich), 1 mM MgSO4, 0.2 mM PMSF, and lysed by a single pass through cooled EmulsiFlex-C3 homogenizer (Avestin). All subsequent steps were performed at 4 °C. Membranes were harvested by centrifugation at 106,000 × g for 1 h, and pellets resuspended in Buffer A. The protein was subsequently purified as BbFpn, but with the addition of a second wash on the Ni-NTA column with three column volumes of 25 mM imidazole pH 8, 300 mM NaCl, and 0.03% DDM, and with 0.03% DDM instead of LMNG in the elution and SEC purification. The SEC eluted protein was concentrated to ~10 mg/ml as determined by the BCA assay (Thermo Fisher Scientific) method and stored at −80 °C until further use.
Protein samples were purified as above and diluted to 0.03 mM (1.5 mg/ml) for ITC experiments. The buffer used for ITC was 20 mM Tris pH 8, 50 mM NaCl, and 0.004% LMNG. The buffer was degassed in vacuum (2 h) and pretreated with Chelex-100 (Bio-Rad) to remove residual calcium and/or metal ions bound with moderate affinity. This was done by first washing the Chelex-100 beads with water and then running the dialysis buffer through the beads in a gravity flow column. The samples were subsequently dialyzed overnight against their respective gel filtration buffers. ITC measurements were obtained by using a MicroCal iTC 200 calorimeter (GE Healthcare) and MicroCal PEAQ-ITC (Malvern Instruments) at 20 °C. For calcium and strontium binding measurements, a 2 mM solution was prepared in the protein buffer using a standard 1 M stock solution. […]. For MgCl2 and KCl measurements, a 2–5 mM solution was prepared in the respective buffer.
In each experiment, the protein solution was loaded into the sample cell, and the ligand solution was loaded in the syringe. […] To obtain the effective heat of binding, the heat of dilution, measured by injecting the ligand solution alone into buffer, was subtracted prior to data analysis. The data were fitted using the ‘one binding site’ model using the MicroCal PEAQ-ITC Analysis Software (Malvern Instruments), and the apparent molar reaction […] (ΔH°), entropy (ΔS°), dissociation constant (Kd), and stoichiometry of binding (N) were determined. […]

BbFpn N196A = BbFpn N196A (Bdellovibrio bacteriovorus, UniProt Q6MLJ0, N196A); test: Isothermal titration calorimetry, N196A BbFpn; format: binding, Bdellovibrio bacteriovorous
BbFpn N196A, sequence (Q6MLJ0 whole entry N196A): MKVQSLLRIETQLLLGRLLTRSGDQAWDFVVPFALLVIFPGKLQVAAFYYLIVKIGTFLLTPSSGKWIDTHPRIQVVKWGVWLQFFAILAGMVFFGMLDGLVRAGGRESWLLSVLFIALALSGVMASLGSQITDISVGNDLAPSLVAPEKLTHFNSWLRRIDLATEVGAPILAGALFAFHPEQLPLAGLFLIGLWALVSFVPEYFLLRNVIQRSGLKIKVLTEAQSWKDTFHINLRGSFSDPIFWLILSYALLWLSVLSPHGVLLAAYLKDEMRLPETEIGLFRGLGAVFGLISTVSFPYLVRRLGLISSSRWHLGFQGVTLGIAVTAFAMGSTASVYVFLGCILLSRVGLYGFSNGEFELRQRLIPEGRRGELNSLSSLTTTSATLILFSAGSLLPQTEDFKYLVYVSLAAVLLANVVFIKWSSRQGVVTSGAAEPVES

wild type BbFpn = wild type BbFpn (Bdellovibrio bacteriovorus, UniProt Q6MLJ0); test: biochemical; format: binding, Bdellovibrio bacteriovorous
wild type BbFpn, sequence (Q6MLJ0 whole entry): as the sequence (Q6MLJ0 whole entry N196A) above, with A196N counted along it

[1] = Supplementary Fig. 7a, one experiment
[2] = Supplementary Figs. 5 and 9, one experiment

[Ca+2] [Ca^2+, calcium]
-TΔS, ITC (mouse Fpn (Fpn-C2); [1]): -9.95 kcal/mol | N (sites), ITC (mouse Fpn (Fpn-C2); [1]): 0.804 ± 4.8e-2 | ΔG, ITC (mouse Fpn (Fpn-C2); [1]): -7.47 kcal/mol | ΔH, ITC (mouse Fpn (Fpn-C2); [1]): 2.49 ± 0.210 kcal/mol | Kd (mouse Fpn (Fpn-C2); thermostabilized mouse Fpn-C2, read-out: Kd (ITC)): ~3 µM and 2.7 µM | Binding to N196A BbFpn by ITC (in words) (BbFpn N196A): complete loss | Kd (wild type BbFpn; 20 °C, 20 mM Tris pH 8, 50 mM NaCl, 0.004% LMNG, read-out: Kd (ITC)): 1.2e-05 ± 4e-07 M | -TΔS, ITC (wild type BbFpn; [2]): -15.3 kcal/mol | N (sites), ITC (wild type BbFpn; [2]): 0.691 ± 8.5e-3 | ΔG, ITC (wild type BbFpn; [2]): -6.61 kcal/mol | ΔH, ITC (wild type BbFpn; [2]): 8.68 ± 0.155 kcal/mol | Kd (wild type BbFpn; Supplementary Figs. 5 and 9, one experiment, read-out: KD (M), ITC): 1.18e-05 M
